Here are results for five compounds from BindingDB's records for doi:10.1016/s0960-894x(01)00331-6 (Dupont Pharmaceuticals, 2001).

As usually defined, the IC50 is the concentration that inhibits the measured activity by half. The low end stands for greater potency, the high end for weaker potency.

The target in the assay is T1, Gag-Pol polyprotein [588-1027]/[588-1147] (Human immunodeficiency virus 1, UniProt P04585).
T1 construct: 588-1027; 588-1147
Nature of the assay: HIV-1 RT Assay. As to conditions: pH 8.2; 37 °C. The source says:
The IC50 of reverse transcriptase is the concentration that inhibits 50% of recombinant HIV-1 RT RNA-directed DNA polymerase activity in vitro.
As for `CC(C)=CCO[C@H]1C(=O)Nc2ccc(Cl)cc2[C@@]1(C#CC1CC1)C(F)(F)F` [(3R,4R)-6-chloro-4-(2-cyclopropylethynyl)-3-[(3-methylbut-2-en-1-yl)oxy]-4-(trifluoromethyl)-1,2,3,4-tetrahydroquinolin-2-one], the IC50 is above 2000 nM.
`COC(=O)N[C@H]1C(=O)Nc2ccc(Cl)cc2[C@@]1(C#CC1CC1)C(F)(F)F` [methyl N-[(3R,4R)-6-chloro-4-(2-cyclopropylethynyl)-2-oxo-4-(trifluoromethyl)-1,2,3,4-tetrahydroquinolin-3-yl]carbamate] gave an IC50 above 2000 nM.
With `O=C1Nc2ccc(Cl)cc2[C@@](C#CC2CC2)(C(F)(F)F)[C@H]1O` [(3R,4R)-6-chloro-4-(2-cyclopropylethynyl)-3-hydroxy-4-(trifluoromethyl)-1,2,3,4-tetrahydroquinolin-2-one], the IC50 was above 2000 nM.
Regarding `CC(=O)N[C@H]1C(=O)Nc2ccc(Cl)cc2[C@@]1(C#CC1CC1)C(F)(F)F` [N-[(3R,4R)-6-chloro-4-(2-cyclopropylethynyl)-2-oxo-4-(trifluoromethyl)-1,2,3,4-tetrahydroquinolin-3-yl]acetamide], the IC50 is above 2000 nM.
Compound `O=C1Nc2ccc(Cl)cc2[C@@](C#CC2CC2)(C(F)(F)F)[C@H]1NCc1ccccc1` [(3R,4R)-3-(benzylamino)-6-chloro-4-(2-cyclopropylethynyl)-4-(trifluoromethyl)-1,2,3,4-tetrahydroquinolin-2-one] gave an IC50 above 2000 nM.
